{"source": "paper PMC8398255", "about": "“Synthesis of 3,5-Bis(trifluoromethyl)phenyl-Substituted Pyrazole Derivatives as Potent Growth Inhibitors of Drug-Resistant Bacteria” (Molecules, 2021)", "key": {"[1]": {"test_system": "S. aureus ATCC 25923 (Sa23)", "assay": "MIC, microdilution (CLSI)", "type": "cell-based", "conditions": "Staphylococcus aureus, ATCC25923; Sa23, antibiotic susceptible S. aureus ATCC 25923; n = 3; read-out: MIC", "outline": "(§1)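 The read-out is the lowest concentration leaving wells free of turbidity visible to the naked eye after 18–20 h incubation at 35 ℃. Test compounds, starting at 32 µg/mL, were diluted two-fold in CAMHB before bacterial culture was added.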"}, "[2]": {"test_system": "S. aureus ATCC 33592 (Sa92)", "assay": "MIC, microdilution (CLSI)", "type": "cell-based", "conditions": "Staphylococcus aureus, ATCC33592; Sa92, methicillin-resistant S. aureus ATCC 33592; n = 3; read-out: MIC", "outline": "as §1"}, "[3]": {"test_system": "S. epidermidis ATCC 700296 (Se)", "assay": "MIC, microdilution (CLSI)", "type": "cell-based", "conditions": "Staphylococcus epidermidis, ATCC700296; Se, S. epidermidis ATCC 700296; n = 3; read-out: MIC", "outline": "as §1"}, "[4]": {"test_system": "S. aureus BAA-2312 (Sa12)", "assay": "MIC, microdilution (CLSI)", "type": "cell-based", "conditions": "Staphylococcus aureus, BAA2312; Sa12, methicillin-resistant S. aureus BAA-2312; n = 3; read-out: MIC", "outline": "as §1"}, "[5]": {"test_system": "E. faecalis ATCC 51299 (Ef99)", "assay": "MIC, microdilution (CLSI)", "type": "cell-based", "conditions": "Enterococcus faecalis, ATCC 51299 / VRE; Ef99, vancomycin-resistant (VRE) E. faecalis ATCC 51299; n = 3; read-out: MIC", "outline": "as §1"}, "[6]": {"test_system": "Bacillus subtilis ATCC 6623 (Bs)", "assay": "MIC, microdilution (CLSI)", "type": "cell-based", "conditions": "ATCC6623; Bs, Bacillus subtilis ATCC 6623; n = 3; read-out: MIC", "outline": "as §1"}, "[7]": {"test_system": "E. faecalis ATCC 29212 (Ef12)", "assay": "MIC, microdilution (CLSI)", "type": "cell-based", "conditions": "Enterococcus faecalis, ATCC29212; Ef12, antibiotic susceptible E. faecalis ATCC 29212; n = 3; read-out: MIC", "outline": "as §1"}, "[8]": {"test_system": "E. faecium ATCC 700221 (Ef21)", "assay": "MIC, microdilution (CLSI)", "type": "cell-based", "conditions": "Enterococcus faecium, ATCC 700221 / VRE; Ef21, vancomycin-resistant (VRE) E. faecium ATCC 700221; n = 3; read-out: MIC", "outline": "as §1"}, "[9]": {"test_system": "S. aureus ATCC 700699 (Sa99)", "assay": "MIC, microdilution (CLSI)", "type": "cell-based", "conditions": "Staphylococcus aureus, ATCC700699; Sa99, methicillin-resistant S. aureus ATCC 700699; n = 3; read-out: MIC", "outline": "as §1"}, "[10]": {"test_system": "S. aureus ATCC 33591 (Sa91)", "assay": "MIC, microdilution (CLSI)", "type": "cell-based", "conditions": "Staphylococcus aureus, ATCC33591; Sa91, methicillin-resistant S. aureus ATCC 33591; n = 3; read-out: MIC", "outline": "as §1"}, "enterococci strains": {"test_system": "enterococci strains", "assay": "MIC against enterococci strains", "type": "cell-based", "conditions": "tested enterococci strains", "experimental": "(§2) Compounds were dissolved in dimethyl sulfoxide (DMSO) to achieve a starting concentration of 32 µg/mL as described by us previously. Compounds were further diluted two-fold across the 96-well honeycomb plate columns in cation adjusted Mueller Hinton broth (CAMHB), and bacterial culture was added. Plates were incubated for 18–20 h at 35 ℃ before determining the minimum concentrations at which wells had no visible turbidity to the naked eye. The MIC values were determined from at least a duplicate result obtained from three independent experiments using fresh bacterial cultures on different days."}, "S. aureus strains": {"test_system": "S. aureus strains", "assay": "MIC against S. aureus strains", "type": "cell-based, Staphylococcus aureus", "experimental": "as §2"}}}
{"smiles": "O=C(O)c1ccc(-n2cc(CNc3ccc(Br)c(Cl)c3)c(-c3cc(C(F)(F)F)cc(C(F)(F)F)c3)n2)cc1", "note": "[Compound 21, 4-[3-[3,5-Bis(trifluoromethyl)phenyl]-4-[(4-bromo-3-chloro-anilino)methyl]pyrazol-1-yl] benzoic acid]", "values": [{"measurement": "MIC", "setting": "[1]", "result": 1, "unit": "µg/mL"}, {"measurement": "MIC", "setting": "[2]", "result": 0.5, "unit": "µg/mL"}, {"measurement": "MIC", "setting": "[3]", "result": 2, "unit": "µg/mL"}, {"measurement": "MIC", "setting": "[4]", "result": 1, "unit": "µg/mL"}, {"measurement": "MIC", "setting": "[5]", "result": 1, "unit": "µg/mL"}, {"measurement": "MIC", "setting": "[6]", "result": 1, "unit": "µg/mL"}, {"measurement": "MIC", "setting": "[7]", "result": 1, "unit": "µg/mL"}, {"measurement": "MIC", "setting": "[8]", "result": 1, "unit": "µg/mL"}, {"measurement": "MIC", "setting": "[9]", "result": 2, "unit": "µg/mL"}, {"measurement": "MIC", "setting": "[10]", "result": 0.5, "unit": "µg/mL"}, {"measurement": "MIC", "setting": "enterococci strains", "result": 1, "unit": "µg/mL"}, {"measurement": "MIC", "setting": "S. aureus strains; Staphylococcus aureus, S. aureus strains, including MRSA", "result": "≥ 0.5", "unit": "µg/mL"}, {"measurement": "times more effective than vancomycin and daptomycin", "setting": "S. aureus strains; against S. aureus strains", "result": "up to 4 times"}]}
